Assays:
[1] = test system: φX-174 plasmid DNA; experiment: Photonicking of φX-174 plasmid DNA, gel electrophoresis; format: biochemical
Experimental: Photolysis with φX-174 Plasmid DNA. Metal complex solutions (with or without quenchers) were saturated with oxygen or argon prior to irradiation. The solutions were further degassed after being mixed with the plasmid. The final solution concentrations were: DPPZPHEN ([…]), φX-174 plasmid DNA (205 μM in base pairs), superoxide dismutase (25 μg/mL), 2-propanol (0.5 M), mannitol (6.25 mM), histidine (8 mM).
Experiments were conducted as described in Example X to evaluate the amount photonicking that occurred in the dark and upon exposure to light for 37TMBP, 56TMBP, OCTBP, BISNMe2, TMOBP, TIOBP, TPBP, BISTAP and BISDPPZ.

[2] = test system: cell membrane; experiment: Cell uptake / passage through the cell membrane
Experimental: OCTBP uptake by KB cells. 11 mg of OCTBP was dissolved in 40 mL of PBS buffer. The solution was vortex stirred for 5 minutes to completely dissolve the solid. The solution was sterile filtered through a 0.2μ nylon syringe filter. The concentration of the solution was determined by measuring the UV absorption at 353 nm (ε353nm=1565 M^−1cm^−1).
Once the cells were 75% confluent media was decanted from the flasks and 8 mL of drug solutions were added to three flasks and 8 mL of PBS buffer solution was added to the control flask. The flasks were incubated at 37° C. for 15, 30 and 45 minutes. Control flask was incubated for 45 minutes. When the flasks were removed, they were washed with 6×10 mL of PBS buffer solution. All the liquid was carefully decanted from the flasks. 1 mL of lysing buffer (1% triton X-100) was added to each of the four flasks. The walls of the flasks were rinsed using disposable pipettes. Once all the contents of the flasks were placed into a 1.5 mL disposable centrifuge tubes (each flask yielded ˜1.2 mL), the tubes were centrifuged at 6000 rpm and at 4° C. for 30 minutes on the Fisher Model 59V high-speed centrifuge. BCA Assay was done to establish the amount of cells in each flask.
Rh content of each flask was determined using an inductively coupled plasma (ICP) instrument (AtomScan16, Thermo Elemental, Franklin, Mass.). From each centrifuge tube 1 mL was pipetted and 370 μL of concentrated HCl was added to form a 10% solution. The samples were heated in a hot water bath at 70° C. for 30 minutes. The samples were centrifuged again and the supernatant liquid was diluted to 8 mL by adding nano-pure water. The samples were analyzed for Rh content by ICP.

[3] = test system: CT DNA; experiment: Photolysis with calf thymus DNA: rhodium covalently bound to DNA; format: binding; settings: irradiation >330 nm
Experimental: (§1) General. The quantity of DNA was determined by the Burton assay (Burton, Biochem. J., 62:315-322 (1956)), and its rhodium content was quantitated using flame atomic absorption spectroscopy (AA). The equilibrium constant for interaction between DPPZPHEN and CT-DNA in the dark was calculated from UV-Vis absorption titration measurements at 380 nm (Wolfe et al., Biochem., 26:6392-6396 (1987); Schemel et al., Biopolymers, 10:465-480 (1971)). Cell viability was determined using the MTT assay (Denizot et al., J. Immunol. Methods, 89:271-277 (1986)). SINV was purified on sucrose gradients as previously described (Owen et al., J. Virol., 70:2757-2763 (1996)).
Photolysis with Calf Thymus DNA (CT DNA). Solutions consisting of 1 mL aliquots of 0.58 mM DPPZPHEN and 2.7 mg/mL CT DNA were irradiated with λ>330 nm light. After irradiation, the solutions were purified by exhaustive dialysis and three cycles of precipitation and resuspension. The DNA and Rh content were determined and/or the DNA was utilized in size exclusion chromatography experiments (Mahnken et al., J. Am. Chem. Soc., 114:9253-9265 (1992)).

[4] = test system: SINV; experiment: Photoinactivation of SINV, virus infectivity; format: cell-based, Sindbis virus
Experimental: as §1, with “(1996)). The titer was generally 7-8 log10 pfu/mL at the beginning of each experiment.” for “(1996)).”
Photolysis with SINV. DPPZPHEN/SINV solutions were prepared by adding a 0.3 mL aliquot of a 600 μM DPPZPHEN stock solution in PBS to 3 mL of purified virus at a concentration of 7-8 log10 pfu/mL and bringing the total volume to 4 mL. The DPPZPHEN/SINV solutions were incubated for 2 hours prior to irradiation, following which 3 mL of the […] 100 μL were withdrawn over time and analyzed for virus infectivity. The inactivation rate constant was calculated using simple hit theory (Hiatt, Bacteriol. Rev., 28:150-163 (1964); Houghtaling et al., Photochem. Photobiol., 71:20-28 (2000)). For the studies measuring infectivity of genome RNA, a 6.9 μL aliquot of 0.623 M DPPZPHEN stock solution in DMSO was added to a 100 μL of TE12 wild type […] solution (10 log10 pfu/mL) to obtain a 40 mM DPPZPHEN/virus solution. Aliquots of 50 μL were placed into 250 μL inserts, incubated for 2 hours, and either kept in the dark or irradiated for 60 minutes with light >330 nm. At the completion of the experiment all the samples were diluted with 6 mL 1×PBS buffer and precipitated for 2 hours at 4° C. with 10% PEG+NaCl (200 mM). The PEG precipitated virus was centrifuged at 4° C. for 30 minutes at 14,000 rpm, and the resulting pellet re-suspended in 200 μL of 1×PBS buffer and extracted with equal volumes of phenol and chloroform. The virion RNA was precipitated with ethanol, re-suspended in 100 μL of 1×PBS, and electroporated into about 2×10^7 baby hamster kidney (BHK) cells using 0.2-cm-gap cuvettes. The electroporation utilized 200 Ohms, 1.5 kV, and 25 μF. The cells were incubated at 37° C. for 12 hours in MEM supplemented with 10% fetal calf serum and the viral supernatants were harvested and assayed for the presence of infectious virus by plaque assay.

In the case of `[Cl-].[Cl][Rh+]12([Cl])([N]3C=CC=c4ccc5c(c43)[N]1C=CC=5)[N]1C=CC=c3c1c1c(c4nc5ccccc5nc34)=CC=C[N]12` [DPPZPHEN, cis-dichloro(dipyrido[3,2a-2′3′c]phenazine)(1,10-phenantroline) rhodium(III) chloride], the “frank nicks / nicking of φX-174 supercoiled plasmid DNA upon irradiation” value ([1]; 311 nm irradiation, Example VIII) is reported as “light dose dependent”, the “photonicking of φX-174 plasmid DNA” value ([1]; Example IX, dark and upon exposure to light) is reported as “found to photonick” and the “protection of the DNA from photonicking by ROS quenchers or argon” value ([1]; oxygen-saturated solutions with quenchers, and under argon, relative to buffered control) is reported as “no significant level of protection”. The “ability to pass through the cell membrane” value [2] was “able to pass through the cell membrane”, the “bases per bound molecule of Rh” value [3] was roughly 18 bases and the “inactivation rate constant k (simple hit theory)” value ([4]; 45 μM, 355 nm irradiation) was 2.4×10^−19 photons^−1. The “reduction in viral titer” value ([4]; 45 μM, 355 nm irradiation) was 6 log, the “effect of the metal complex on the virus in the dark” value ([4]; dark) was “unaffected” and the “rate of photoinactivation under oxygen versus nitrogen” value ([4]; oxygen or nitrogen) was “the same under either oxygen or nitrogen”.

Source: patent US20060111335A1, “Photoactivated anti-viral and anti-cancer agent” (priority 2002, published 2006)
